Measured values taken from PMC9268515, “UGT1A1 and UGT1A9 Are Responsible for Phase II Metabolism of Tectorigenin and Irigenin In Vitro” (Molecules, 2022).
Where two headings read alike, the source gives them in different places.

Assays:
UGT1A1 = target: T1, UGT1A1 (Homo sapiens, UniProt P22309); test: Recombinant UGT reaction screening and enzyme kinetics, UGT1A1; type: in vitro ADME; conditions: recombinant UGT1A1 screening
T1 construct: purchased BD Biosciences (Woburn, MA, USA)
T1 sequence (P22309 26-533): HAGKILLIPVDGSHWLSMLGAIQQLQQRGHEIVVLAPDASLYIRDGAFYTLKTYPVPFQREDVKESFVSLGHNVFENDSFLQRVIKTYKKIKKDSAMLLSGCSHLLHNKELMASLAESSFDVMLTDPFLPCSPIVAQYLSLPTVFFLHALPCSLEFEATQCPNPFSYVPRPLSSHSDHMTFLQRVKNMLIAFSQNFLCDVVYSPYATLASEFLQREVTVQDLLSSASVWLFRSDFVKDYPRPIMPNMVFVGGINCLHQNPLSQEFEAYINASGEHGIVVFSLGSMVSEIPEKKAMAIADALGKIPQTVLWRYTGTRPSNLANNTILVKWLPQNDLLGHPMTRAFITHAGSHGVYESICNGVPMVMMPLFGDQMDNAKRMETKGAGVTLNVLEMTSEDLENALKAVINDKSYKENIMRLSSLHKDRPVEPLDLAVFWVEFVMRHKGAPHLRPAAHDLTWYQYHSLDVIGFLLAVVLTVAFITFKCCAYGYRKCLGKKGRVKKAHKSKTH
Description: (§1) UGT reaction screening of tectorigenin and irigenin was conducted using nine commercially available human UGTs (UGT1A1/1A3/1A4/1A6/1A9/2B4/2B7/2B15/2B17). Furthermore, we studied the enzymatic kinetic characteristics of tectorigenin and irigenin using UGT1A1 and UGT1A9. Six concentrations of tectorigenin and irigenin (1, 3, 10, 30, 100, and 300 μM) were incubated in triplicate in order to obtain the enzyme kinetic characteristics of tectorigenin and irigenin glucuronide.
(§2) For both HLMs and UGTs, metabolic kinetic analysis was performed by fitting the data to the Michaelis-Menten model. The Km and Vmax of enzymes were calculated as follows:(3) V=Vmax×[S]/Km+[S], where [S] is the substrate concentration. All results were shown as the mean ± standard error (SE). Differences among different groups were compared using one-way analysis of variance. A p-value < 0.05 was considered statistically significant.

UGT1A9 = target: T2, UGT1A9 (Homo sapiens, UniProt O60656); test: Recombinant UGT reaction screening and enzyme kinetics, UGT1A9; type: in vitro ADME; conditions: recombinant UGT1A9 screening
T2 construct: purchased BD Biosciences (Woburn, MA, USA)
T2 sequence (O60656 26-530): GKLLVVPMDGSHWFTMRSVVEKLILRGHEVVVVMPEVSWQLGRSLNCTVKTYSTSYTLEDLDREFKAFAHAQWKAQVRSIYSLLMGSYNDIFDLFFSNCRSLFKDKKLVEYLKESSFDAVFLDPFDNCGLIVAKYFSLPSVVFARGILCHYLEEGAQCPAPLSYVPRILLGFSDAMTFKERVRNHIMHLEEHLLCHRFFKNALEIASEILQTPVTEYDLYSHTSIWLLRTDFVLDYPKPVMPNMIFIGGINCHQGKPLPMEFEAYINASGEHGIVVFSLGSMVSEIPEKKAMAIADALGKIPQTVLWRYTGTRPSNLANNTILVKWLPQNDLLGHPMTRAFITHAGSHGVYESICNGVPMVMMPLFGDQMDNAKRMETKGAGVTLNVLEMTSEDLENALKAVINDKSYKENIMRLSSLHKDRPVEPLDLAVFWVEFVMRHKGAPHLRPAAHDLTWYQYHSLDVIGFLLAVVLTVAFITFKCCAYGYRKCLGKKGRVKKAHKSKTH
Description: as §1, §2

[1] = test system: pooled human liver microsomes (HLMs); test: Glucuronidation kinetics of tectorigenin and irigenin in HLMs; type: in vitro ADME; conditions: irigenin glucuronidation in HLMs
Description: To obtain suitable incubation conditions, we first evaluated the linearity of metabolite formation at different times (10–60 min), the UDPGA concentrations (0.5–5 mM), and the microsome protein concentrations in HLMs (0.2–2 mg/mL). The final incubation medium used in the experiment contained MgCl2 (10 mM), microsomes (0.5 mg/mL), 1,4-lactone monohydrate (5 mM), alamethicin ([…]), UDPGA (1 mM), and different concentrations of tectorigenin or irigenin (1–300 μM) in Tris-HCl buffer (50 mM, pH 7.4). The mixture was incubated at 37 °C for 30 min; then, the reaction was stopped by adding ice-cold methanol. After the mixtures were centrifuged (17,000 rpm, 10 min), and the supernatant was analyzed by HPLC. Michaelis–Menten parameters (Vmax and Km) were determined on the basis of the nonlinear regression of the plot of the substrate concentration vs. rate of metabolite formation.
as §2

[2] = Stability experiment under different storage conditions; type: physicochemical; conditions: for Stability in Autosampler for 12 h, RE (%): 4 °C; for Stability in Autosampler for 12 h, RE (%) / Stability in Inactivated Metabolic System for 2 h, RE (%) / Stability −80 °C for 7 Days, RE (%): n = 5; for Stability in Inactivated Metabolic System for 2 h, RE (%): approximately 25 °C
Description: In the stability experiment, we evaluated the stability of tectorigenin and irigenin, as well as their metabolites, under different conditions. […] Metabolites (M, M1, and M2) were stable in the inactivated metabolic system for 2 h (held constant at approximately 25 °C) and after storage for 7 days (−80 °C), as well as in the pretreated samples placed in the autosampler for 12 h at 4 °C.

UGTs in HLMs = test: Inhibition of glucuronidation reaction by chemical inhibitors in HLMs; type: in vitro ADME, human; conditions: vs. control without inhibitor
Description: To obtain suitable incubation conditions, we first evaluated the linearity of metabolite formation at different times (10-60 min), the UDPGA concentrations (0.5-5 mM), and the microsome protein concentrations in HLMs (0.2-2 mg/mL). The final incubation medium used in the experiment contained MgCl2 (10 mM), microsomes (0.5 mg/mL), 1,4-lactone monohydrate (5 mM), alamethicin ([…]), UDPGA (1 mM), and different concentrations of tectorigenin or […] (1-300 μM) in Tris-HCl buffer (50 mM, pH 7.4). The mixture was incubated at 37 °C for 30 min; then, the reaction was stopped by adding ice-cold methanol. After the mixtures were centrifuged (17,000 rpm, 10 min), and the supernatant was analyzed by HPLC. Michaelis-Menten parameters (Vmax and Km) were determined on the basis of the nonlinear regression of the plot of the substrate concentration vs. rate of metabolite formation. Several well-characterized UGT substrates were used as “inhibitors” to examine the involvement of UGTs in the glucuronidation of tectorigenin or […]. To reduce nonspecific inhibition, the concentration of each inhibitor was determined according to the available literature, namely, 100 μM silibinin for UGT1A1 [31], 50 μM trifluoperazine for UGT1A4 [32], 100 μM 1-naphthol for UGT1A6/1A9 [18, 33], and 500 μM fluconazole for UGT2B7 [34]. A reaction without inhibitors was carried out in parallel as a control.

[3] = substrate: COc1cc(-c2coc3cc(O)c(OC)c(O)c3c2=O)cc(O)c1OC; test: Recombinant UGT reaction screening and enzyme kinetics, UGT1A9; type: in vitro ADME, human; conditions: other: irigenin glucuronidation
Description: as §1, §2

[4] = substrate: COc1c(O)cc2occ(-c3ccc(O)cc3)c(=O)c2c1O; test: as above; type: in vitro ADME, human; conditions: other: tectorigenin glucuronidation (M) by UGT1A9
Description: as §1, §2

[5] = substrate: COc1cc(-c2coc3cc(O)c(OC)c(O)c3c2=O)cc(O)c1OC; test: Recombinant UGT reaction screening and enzyme kinetics, UGT1A1; type: in vitro ADME, human; conditions: other: irigenin glucuronidation, UGT1A1(M1)
Description: as §1, §2

[6] = substrate: COc1c(O)cc2occ(-c3ccc(O)cc3)c(=O)c2c1O; test: as above; type: in vitro ADME, human; conditions: other: tectorigenin glucuronidation (M) by UGT1A1
Description: as §1, §2

[7] = 100 μM silibinin, 100 μM 1-naphthol

COc1cc(-c2coc3cc(O)c(OC)c(O)c3c2=O)cc(O)c1OC [Irigenin, 3’,5,7-trihydroxy-4’,5’,6-trimethoxy isoflavone]
Activity in glucuronidation of irigenin, M1 formation (UGT1A1): highest activity | Activity in glucuronidation of irigenin, M2 formation (UGT1A9): highest effect | Vmax for M1 formation ([1]; metabolite M1): 6.09 ± 0.27 nmol/min/mg | Km ([1]; metabolite M1, read-out: Km for M1 formation): 16.9 ± 2.96 µM | Vmax for M2 formation ([1]; metabolite M2): 1.16 ± 0.03 nmol/min/mg | Km ([1]; metabolite M2, read-out: Km for M2 formation): 27.4 ± 2.46 µM | Stability in pretreated samples in the autosampler ([2]; autosampler 12 h at 4 °C): stable | RE and RSD values in pretreated samples in the autosampler ([2]; autosampler 12 h at 4 °C, printed as below ±5%): < 5%

COc1c(O[C@@H]2O[C@H](C(=O)O)[C@@H](O)[C@H](O)[C@H]2O)cc2occ(-c3ccc(O)cc3)c(=O)c2c1O [M, tectorigenin-7-O-glucuronide]
Stability in Autosampler for 12 h, RE (%) ([2]; High concentration): −5.18% | Stability in Inactivated Metabolic System for 2 h, RE (%) ([2]; High concentration): 0.59% | Stability −80 °C for 7 Days, RE (%) ([2]; High concentration): 4.71% | Stability in Autosampler for 12 h, RE (%) ([2]; Low concentration): −2.13% | Stability in Inactivated Metabolic System for 2 h, RE (%) ([2]; Low concentration): 0.38% | Stability −80 °C for 7 Days, RE (%) ([2]; Low concentration): 2.90% | Stability of metabolites ([2]; inactivated metabolic system 2 h (approx. 25 °C), 7 days at −80 °C, autosampler 12 h at 4 °C): stable

COc1cc(C2Oc3cc([C@H]4Oc5cc(O)cc(O)c5C(=O)[C@@H]4O)ccc3OC2CO)ccc1O (some centres unmarked) [Silibinin]
Effect of UGT inhibitor on tectorigenin glucuronidation (UGTs in HLMs; [7]): significantly inhibited | Effect of UGT inhibitor on production of M1 from irigenin (UGTs in HLMs; 100 μM silibinin): significantly inhibited

Oc1cccc2ccccc12 [1-naphthol]
Effect of UGT inhibitor on production of M2 from irigenin (UGTs in HLMs; 100 μM 1-naphthol): inhibited | Effect of UGT inhibitor on tectorigenin glucuronidation (UGTs in HLMs; [7]): significantly inhibited

B1: UGT1A9 (Homo sapiens) (protein)
chain: GKLLVVPMDGSHWFTMRSVVEKLILRGHEVVVVMPEVSWQLGRSLNCTVKTYSTSYTLEDLDREFKAFAHAQWKAQVRSIYSLLMGSYNDIFDLFFSNCRSLFKDKKLVEYLKESSFDAVFLDPFDNCGLIVAKYFSLPSVVFARGILCHYLEEGAQCPAPLSYVPRILLGFSDAMTFKERVRNHIMHLEEHLLCHRFFKNALEIASEILQTPVTEYDLYSHTSIWLLRTDFVLDYPKPVMPNMIFIGGINCHQGKPLPMEFEAYINASGEHGIVVFSLGSMVSEIPEKKAMAIADALGKIPQTVLWRYTGTRPSNLANNTILVKWLPQNDLLGHPMTRAFITHAGSHGVYESICNGVPMVMMPLFGDQMDNAKRMETKGAGVTLNVLEMTSEDLENALKAVINDKSYKENIMRLSSLHKDRPVEPLDLAVFWVEFVMRHKGAPHLRPAAHDLTWYQYHSLDVIGFLLAVVLTVAFITFKCCAYGYRKCLGKKGRVKKAHKSKTH
notes: purchased BD Biosciences (Woburn, MA, USA)
Km ([3]; UGT1A9(M1)): 73.88 ± 4.04 µM | Vmax ([3]; UGT1A9(M1)): 0.00045 µmol/min/mg | Km ([3]; UGT1A9(M2)): 25.04 ± 2.37 µM | Vmax ([3]; UGT1A9(M2)): 0.00456 µmol/min/mg | Km [4]: 1.837e-05 ± 1.16e-06 M | Vmax [4]: 0.00349 µmol/min/mg

B2: UGT1A1 (Homo sapiens) (protein)
chain: HAGKILLIPVDGSHWLSMLGAIQQLQQRGHEIVVLAPDASLYIRDGAFYTLKTYPVPFQREDVKESFVSLGHNVFENDSFLQRVIKTYKKIKKDSAMLLSGCSHLLHNKELMASLAESSFDVMLTDPFLPCSPIVAQYLSLPTVFFLHALPCSLEFEATQCPNPFSYVPRPLSSHSDHMTFLQRVKNMLIAFSQNFLCDVVYSPYATLASEFLQREVTVQDLLSSASVWLFRSDFVKDYPRPIMPNMVFVGGINCLHQNPLSQEFEAYINASGEHGIVVFSLGSMVSEIPEKKAMAIADALGKIPQTVLWRYTGTRPSNLANNTILVKWLPQNDLLGHPMTRAFITHAGSHGVYESICNGVPMVMMPLFGDQMDNAKRMETKGAGVTLNVLEMTSEDLENALKAVINDKSYKENIMRLSSLHKDRPVEPLDLAVFWVEFVMRHKGAPHLRPAAHDLTWYQYHSLDVIGFLLAVVLTVAFITFKCCAYGYRKCLGKKGRVKKAHKSKTH
notes: as for B1
Km [5]: 20.86 ± 2.04 µM | Vmax [5]: 0.00522 µmol/min/mg | Km [6]: 4.064e-05 ± 5.56e-06 M | Vmax [6]: 0.00901 µmol/min/mg
